Assays:
[1] = biological target: T1, Progestogen Receptor of Rabbit's Uterus (Oryctolagus cuniculus, UniProt P06186); experiment: Relative affinity of the bond, progestogen receptor (tritiated product R displacement); assay type: binding; conditions: for Relative affinity of the bond (RAB), Progestogen, 2 H: incubation 2 H at 0° C.; for Relative affinity of the bond (RAB), Progestogen, 2 H / Relative affinity of the bond (RAB), Progestogen, 24 H: RAB=100(CH)/(CX); for Relative affinity of the bond (RAB), Progestogen, 24 H: incubation 24 H at 0° C.
T1 construct: The uteri were removed, weighed and homogenized at 0° C; from tissue; host or cells: uterine cytosol (150,000 g supernatant) of estradiol-primed immature rabbits
T1 sequence (P06186 1-930): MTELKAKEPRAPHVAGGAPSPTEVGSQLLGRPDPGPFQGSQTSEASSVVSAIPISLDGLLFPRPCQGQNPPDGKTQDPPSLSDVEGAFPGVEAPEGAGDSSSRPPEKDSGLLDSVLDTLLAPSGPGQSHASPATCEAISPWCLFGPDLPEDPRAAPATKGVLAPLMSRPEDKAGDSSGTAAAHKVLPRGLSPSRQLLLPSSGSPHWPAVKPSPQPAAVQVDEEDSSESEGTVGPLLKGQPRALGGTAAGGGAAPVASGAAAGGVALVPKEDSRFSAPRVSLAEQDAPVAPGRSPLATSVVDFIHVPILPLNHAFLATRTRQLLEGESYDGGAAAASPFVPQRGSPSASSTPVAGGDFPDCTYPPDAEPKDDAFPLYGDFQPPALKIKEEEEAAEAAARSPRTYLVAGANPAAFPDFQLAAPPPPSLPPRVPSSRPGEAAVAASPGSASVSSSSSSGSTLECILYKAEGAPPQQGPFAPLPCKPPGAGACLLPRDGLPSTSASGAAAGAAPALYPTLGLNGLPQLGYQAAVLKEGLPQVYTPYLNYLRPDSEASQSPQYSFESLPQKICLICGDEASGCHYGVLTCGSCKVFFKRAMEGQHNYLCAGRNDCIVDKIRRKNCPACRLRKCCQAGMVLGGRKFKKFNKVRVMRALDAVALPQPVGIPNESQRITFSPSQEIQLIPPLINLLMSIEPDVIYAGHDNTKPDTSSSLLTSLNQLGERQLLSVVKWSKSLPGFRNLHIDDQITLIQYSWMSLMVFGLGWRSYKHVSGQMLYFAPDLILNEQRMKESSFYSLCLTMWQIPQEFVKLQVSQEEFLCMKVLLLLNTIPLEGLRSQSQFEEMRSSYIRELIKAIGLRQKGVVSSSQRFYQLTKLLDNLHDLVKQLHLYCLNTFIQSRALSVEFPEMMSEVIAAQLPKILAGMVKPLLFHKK
Experimental: Progestogen Receptor of Rabbit's Uterus:
Impuberal rabbits weighing about 1 kg received a cutaneous application of 25 μg of estradiol and 5 days after this treatment, the animals were killed. The uteri were removed, weighed and homogenized at 0° C. using a Potter teflon-glass in a TS buffered solution (Tris 10 mM, Saccharose 0.25 M, HCl pH 7.4) (1 g of tissue for 50 ml of TS). The homogenate was then ultracentrifuged (150,000 g×90 minutes) at 0° C. and aliquots of the supernatant were incubated at 0° C. for a time t, with a constant concentration (T) of the tritiated product R (17,21-dimethyl-19-nor-Δ^4,9-pregnadiene-3,20-dione in the presence of increasing concentrations (0-2500.10^−9 M) either of cold R or of cold progesterone, or of the cold product to be tested. The concentration (B) of bound tritiated R was subsequently measured in each incubate by the technique of adsorption on dextran charcoal.
(§1) Calculation of the Relative Affinty of the Bond
(§2) The calculation of the Relative Affinity of the Bond (RAB) was identical for all the receptors. The following 2 curves were traced; the percentage of the bound tritiated hormone [formula]
(§3) was a function of the logarithm of the concentration of the cold reference hormone and [formula]
(§4) as a function of the logarithm of the concentration of the cold product tested.
(§5) One determined the straight line of the equation [formula]
(§6) The intersections of the straight line I50 and of the curves make it possible to evaluate the concentrations of the cold reference hormone (CH) and of the tested cold product (CX) which inhibit to an extend of 50% the binding of the tritiated hormone upon the receptor. The relative affinity of the bond (RAB) of the tested product is determined by the equation

[2] = biological target: T2, Androgen Receptor of Rat's Prostate (Rattus norvegicus, UniProt P15207); experiment: Relative affinity of the bond, androgen receptor (tritiated testosterone displacement); assay type: binding; conditions: for Relative affinity of the bond (RAB), Androgen, 0.5 H: incubation 0.5 H at 0° C.; for Relative affinity of the bond (RAB), Androgen, 0.5 H / Relative affinity of the bond (RAB), Androgen, 25 H: RAB=100(CH)/(CX); for Relative affinity of the bond (RAB), Androgen, 25 H: incubation 25 H at 0° C.
T2 construct: Their prostates were removed, weighed and homogenized at 0° C; from tissue; host or cells: prostate cytosol (105,000 g supernatant) of castrated male Sprague-Dawley rats
T2 sequence (P15207 1-902): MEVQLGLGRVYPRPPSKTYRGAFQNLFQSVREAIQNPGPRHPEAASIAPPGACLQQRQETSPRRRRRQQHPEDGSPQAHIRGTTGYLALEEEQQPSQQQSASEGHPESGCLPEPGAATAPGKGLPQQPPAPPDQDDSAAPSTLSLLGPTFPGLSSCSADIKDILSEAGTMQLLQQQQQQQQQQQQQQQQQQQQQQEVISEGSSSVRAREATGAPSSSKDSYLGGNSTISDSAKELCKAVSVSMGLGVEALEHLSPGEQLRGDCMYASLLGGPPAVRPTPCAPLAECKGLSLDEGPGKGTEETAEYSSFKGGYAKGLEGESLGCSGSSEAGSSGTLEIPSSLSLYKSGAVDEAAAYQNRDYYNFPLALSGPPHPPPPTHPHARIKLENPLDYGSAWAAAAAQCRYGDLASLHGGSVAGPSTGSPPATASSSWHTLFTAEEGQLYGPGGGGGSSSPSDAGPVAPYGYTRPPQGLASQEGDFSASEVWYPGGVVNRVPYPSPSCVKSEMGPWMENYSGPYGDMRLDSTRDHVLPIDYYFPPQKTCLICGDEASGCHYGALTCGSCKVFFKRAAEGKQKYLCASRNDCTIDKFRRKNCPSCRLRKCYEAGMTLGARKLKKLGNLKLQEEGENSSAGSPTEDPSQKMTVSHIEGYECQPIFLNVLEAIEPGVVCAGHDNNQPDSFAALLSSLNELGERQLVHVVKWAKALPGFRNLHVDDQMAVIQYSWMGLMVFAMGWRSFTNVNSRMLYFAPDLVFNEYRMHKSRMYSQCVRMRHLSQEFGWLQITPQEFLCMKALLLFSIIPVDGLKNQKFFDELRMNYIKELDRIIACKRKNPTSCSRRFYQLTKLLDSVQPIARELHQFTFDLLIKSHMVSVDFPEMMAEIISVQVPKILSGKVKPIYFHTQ
Experimental: Androgen Receptor of Rat's Prostate:
Male Sprague Dawley EPOS rats weighing 160 to 200 g were castrated and 24 hours after the castration, the animals were killed. Their prostates were removed, weighed and homogenized at 0° C. using a Potter teflon-glass in a TS buffered solution (Tris 10 mM, saccharose 0.25 M, HCl pH 7.4) (1 g of tissue for 5 ml of TS). The homogenate was ultracentrifuged (105,000 g for 60 minutes) at 0° C. and aliquots of the supernatant were incubated at 0° C. for an incubation time E with a constant concentration (T) of tritiated testosterone in the presence of increasing concentrations (0-1000.10^−9 M) either of cold testosterone or of the product to be tested. The concentration of bound tritiated testosterone (B) was then measured in each incubate by the adsorption on dextran carbon technique.
as §1, §2, §3, §4, §5, §6

Row | Compound | Relative affinity of the bond (RAB), Progestogen, 2 H [1] | Relative affinity of the bond (RAB), Progestogen, 24 H [1] | Relative affinity of the bond (RAB), Androgen, 0.5 H [2] | Relative affinity of the bond (RAB), Androgen, 25 H [2] | affinity for the pregesterone receptor [1] | affinity for the androgen receptor [2]
1 | CCCCN(C)C(=O)CCCCCCCCCC[C@H]1C[C@]2(C)[C@@H](O)CC[C@H]2[C@@H]2CCc3cc(O)ccc3[C@@H]12 [Example 13, N-Butyl-3,17β-Dihydroxy-N-Methyl-11β-Δ^1,3,5(10)-Estratriene-Undecanamide] | 0.0 | 1.8 | 0 | 0.12 | – | –
2 | CC(C)N(C)C(=O)CCCCCCCCCC[C@H]1C[C@]2(C)[C@@H](O)CC[C@H]2[C@@H]2CCc3cc(O)ccc3[C@@H]12 [Example 16, 3,17β-dihydroxy-N-methyl-N-isopropyl-11β-Δ^1,3,5(10)-estratriene undecanamide] | 0.5 | 2 | 0 | 0.4 | – | –
3 | CN(C)CCN(C)C(=O)CCCCCCCCCC[C@H]1C[C@]2(C)[C@@H](O)CC[C@H]2[C@@H]2CCC3=CC(=O)CCC3=C12 [Example 19, N-[2-(dimethylamino)-ethyl]-17β-hydroxy-N-methyl-3-oxo-11β-Δ^4,9-estradiene undecanamide] | 6 | 7 | 11 | 11 | – | moderate affinity

Continued, in another order:

Row | Relative affinity of the bond (RAB), Progestogen, 2 H [1] | Relative affinity of the bond (RAB), Progestogen, 24 H [1] | Relative affinity of the bond (RAB), Androgen, 0.5 H [2] | Relative affinity of the bond (RAB), Androgen, 25 H [2] | affinity for the pregesterone receptor [1] | Compound | affinity for the androgen receptor [2]
4 | 0 | 16 | 0.12 | 1.2 | moderate affinity | CN(Cc1ccccc1)C(=O)CCCCCCCCCC[C@H]1C[C@]2(C)[C@@H](O)CC[C@H]2[C@@H]2CCC3=CC(=O)CCC3=C12 [Example 17, N-benzyl-17β-hydroxy-N-methyl-3-oxo-11β-Δ^4,9-estradiene undecanamide] | –
5 | 12 | 21 | 0.0 | 0 | moderate affinity | CC#C[C@]1(O)CC[C@H]2[C@@H]3CCC4=CC(=O)CCC4=C3[C@@H](CCCCCCCCCCC(=O)NCCCC)C[C@@]21C [Example 22, N-butyl-17β-hydroxy-3-oxo-17α-(1-propynyl)-11β-Δ^4,9-estradiene undecanamide] | –
6 | 0 | 0 | 0 | 0.4 | – | CCCCN(C)C(=O)CCCCCCCCCCC[C@H]1C[C@]2(C)[C@@H](O)CC[C@H]2[C@@H]2CCc3cc(O)ccc3[C@@H]12 [Example 24, N-butyl-3,17β-dihydroxy-N-methyl-11β-Δ^1,3,5(10)-estratriene dodecanamide] | –
7 | 0.3 | 1 | 0 | 0 | – | N-butyl-3,17β-dihydroxy-N-methyl-19-nor-11β-Δ^1,3,5(10)-pregnatrien-20-yn undecanamide [Example 21] | –

— patent US6790971B1, “19-Nor-steroids” (Aventis Pharma S.A., priority 1989, dated 2004)
